“Also recorded” adds a separate entry of the source.

From patent publication US20250064983A1, “COMPOSITIONS AND METHODS FOR TREATING A CARDIAC DISEASE” (The Children's Medical Center Corporation, priority 2022, published 2025) come the findings set out here.

For experiment [1], the target named is CaMKIIδ (Homo sapiens, UniProt Q13557). The experiment is described as follows: in vitro inhibition of CaMKIIδ, bioluminescent ADP monitoring assay (ADP-GLO). It is filed as biochemical. As to conditions: purified polypeptides. The method, then:
FIG. 4 provides a schematic illustrating the design of an in vitro experiment to evaluate the impact of the purified polypeptides described in FIG. 2D and shown in the left portion of FIG. 4 on CaMKIIδ (an isomer of CaMKII) activity. Activity of CaMKIIδ was measured using a bioluminescent and homogeneous ADP monitoring assay for kinases (ADP-GLO™), which is described in Zegzouti, et al. “ADP-Glo: A Bioluminescent and Homogeneous ADP Monitoring Assay for Kinases,” ASSAY and Drug Development Technologies, December 2009, 560-572, doi.org/10.1089/adt.2009.0222, the disclosure of which is incorporated herein by reference in its entirety for all purposes.
Inhibition of CaMKIIδ activity by the polypeptides was evaluated using a bioluminescent and homogeneous ADP monitoring assay for kinases (ADP-GLO™), which is described in Zegzouti, et al. “ADP-Glo: A Bioluminescent and Homogeneous ADP Monitoring Assay for Kinases,” ASSAY and Drug Development Technologies, December 2009, 560-572, doi.org/10.1089/adt.2009.0222, the disclosure of which is incorporated herein by reference in its entirety for all purposes (FIG. 4).
Background: ADP-Glo turns the ADP formed in a reaction into a luminescent signal.

The subject of experiment [2] is Tbx5 knockout mice. In words: Example 5: beat-to-beat variability (EKG) in Tbx5 knockout mice (AF model). The experiment is classed as in vivo, mouse. From the text:
(§1) Two different atrial fibrillation (AF) mouse models were used to test the efficacy of AIP×5 at treating AF of different origins. The two different AF mouse models were liver kinase B1 (LKB1) knock out mice and T-box transcription factor 5 (Tbx5) knock out mice.
(§2) LKB1-floxed or Tbx5-floxed mice were used to test the efficacy of AIP×5. AAV-NPPA-Cre was then used to conditionally knock out LKB1 or Tbx5 from the atria of the mice. NPPA is an atria specific promoter, ensuring that Cre recombinase directed knockout of LKB1 or Tbx5 was restricted to the atria. AAV-NPPA-FP (fluorescent protein) was used as a control virus. AAV-NPPA-FP has no Cre, and therefore the gene of interest is not knocked out. Uninjected mice were also included as a control to account for any effects caused by AAV injections. AAV-cTnT-AIP×5 or AAV-cTnT-CN19o were both tested as potential therapies to AF.
(§3) In short, P3 LKB1-floxed or Tbx5-floxed mice were injected (or not injected in the uninjected controls), and then EKG measurements of the mice were taken every two weeks starting at P14. At 12 weeks, the mice were sacrificed, and the sacrificed mice were tested for protein expression.
AF was calculated using the standard deviation of the beat-to-beat timing differences. A high beat-to-beat variability when sedated was indicative of atrial misfiring. […]

The test system of experiment [3] is RYR2^R4650I/WT mouse model of CPVT. In words: ectopy and induced VT in RYR2^R4650I/WT mouse model of CPVT, AAV delivery. It is filed as in vivo. An excerpt:
FIGS. 2A-2G provide plots, a protein structure, schematics, a bar graph, and images showing how a therapeutic cargo containing a CaMKII inhibitor was optimized to treat catecholaminergic polymorphic ventricular tachycardia (CPVT) through altering potency, binding, and/or multimerization of the CaMKII inhibitor. FIG. 2A provides plots showing the IC50 concentrations for the autocamtide-2-related inhibitory peptide (AIP) and CN19o (Coultrap, et al. “Improving a Natural CaMKII Inhibitor by Random and Rational Design,” PLoS One, Oct. 3, 2011, doi.org/10.1371/journal.pone.0025245; and Ishida, et al, “Critical amino acid residues of AIP, a highly specific inhibitory peptide of calmodulin-dependent protein kinase II,” FEBS Letters, 427:115-118 (1998), the disclosures of which is incorporated herein by reference in its entirety for all purposes). […]
The development of improved agents for the treatment of CPVT, the CPVT treatment efficacy of polypeptides A) containing multiple repeats of AIP (FIG. 2C) or the potent CaMKII inhibitor CN19o or B) containing AIP or CN19o fused to FKBP12.6 (FIG. 2B), which binds RYR2, which is a target of CaMKII (FIG. 1A). […] The efficacy of the polypeptides in treatment of catecholaminergic polymorphic ventricular tachycardia (CPVT) was evaluated in the RYR2^R4650I/WT mouse model of CPVT as shown in FIG. 2D. […]

The test system of experiment [4] is LKB1 knockout mice. The experiment is described as follows: Example 5: beat-to-beat variability (EKG) in LKB1 knockout mice (AF model). The experiment is classed as in vivo, mouse.
Source text: as §1, §2, §3
AF was calculated using the standard deviation of the beat-to-beat timing differences. A high beat-to-beat variability when sedated was indicative of atrial misfiring.
Statistical significance in the tests illustrated in FIGS. 10 and 11 was conducted using a 2-way Anova with post-hoc Dunnett's multiple comparisons to control (FP) group.

Chain of CaMKIIδ (Q13557 1-478): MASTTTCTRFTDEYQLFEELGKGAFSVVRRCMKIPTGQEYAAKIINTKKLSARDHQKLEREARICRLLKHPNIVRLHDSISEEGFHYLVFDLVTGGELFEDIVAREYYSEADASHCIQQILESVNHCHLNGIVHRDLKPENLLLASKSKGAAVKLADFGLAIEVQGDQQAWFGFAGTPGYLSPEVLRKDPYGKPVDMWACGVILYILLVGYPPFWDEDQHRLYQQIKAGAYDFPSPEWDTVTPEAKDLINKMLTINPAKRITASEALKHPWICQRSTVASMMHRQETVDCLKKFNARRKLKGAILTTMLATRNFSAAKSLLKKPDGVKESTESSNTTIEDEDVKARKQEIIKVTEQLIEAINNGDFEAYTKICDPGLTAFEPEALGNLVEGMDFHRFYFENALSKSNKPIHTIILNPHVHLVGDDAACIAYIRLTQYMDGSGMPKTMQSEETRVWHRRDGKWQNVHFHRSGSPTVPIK

Consider “YKKALHRQEAVDALYKKALHRQEAVDALYKKALHRQEAVDALYKKALHRQEAVDALYKKALHRQEAVDAL [AIP×5]”, for which, in experiment [1], the concentration for a half-maximal effect (EC50) stood at 0.114 µM. Also, the “suppression of beat-to-beat variability” value in experiment [2] (AAV-cTnT vector, FIG. 11) is on record as “reduction in beat-to-beat variability; also recorded: effective in suppressing beat-to-beat variability”; in experiment [4] (AAV-cTnT vector, FIG. 10), “reduction in beat-to-beat variability; also recorded: effective in suppressing beat-to-beat variability”. For the same sequence, the “beat-to-beat variability, statistical difference to control” value in experiment [2] (after week 4) is reported as “no statistically significant difference in beat-to-beat variability”. For the same sequence, the “percent of mice that showed induced ventricular tachycardia (VT)” value in experiment [3] (AAV vector (FIG. 2F)) is reported as “reduction in instances of induced VT”. For the same sequence, in experiment [3] (RYR2^R4650I/WT mice, AAV vector (FIG. 2E, 2F)), the “percent ectopy / CPVT treatment efficacy” value is given as “greatest reduction in instances of ectopy; also recorded: most effective in treating CPVT”. For the same sequence, the “beat-to-beat variability compared to control (non-LKB1 knockout) mice” value in experiment [4] (2-way Anova with Dunnett's) is given as “no statistically significant difference in beat-to-beat variability”.

In general, EC50 refers to the midpoint of the concentration-response curve. Read a high EC50 as a need for much substance.
